Entries after “also recorded” stand apart in the source; their conditions may differ.
Legend:
[1] = test system: WT and PS1 KO cells; assay: Intracellular protein degradation (pulse-chase, [3H]-leucine) in WT and PS1 KO blastocysts; format: cell-based, Murine; conditions: serum withdrawal, NH4Cl 20 mM, 3MA 10 mM
Method: (§1) Total protein degradation in cultured cells was measured by pulse-chase experiments (Auteri et al., 1983, J Cell Physiol 115, 167-174). Confluent cells were labeled with [^3H]-leucine (2 μCi/ml) for 48 hrs at 37° C. in order to preferentially label long-lived proteins. Following labeling, cells were extensively washed and maintained in complete medium (DMEM+10% fetal bovine serum), under which conditions autophagy is suppressed, or in serum-deprived medium, where autophagy is induced. Under both conditions, after washing the cells, the medium was supplemented with unlabeled 2.8 mM leucine to prevent [^3H]-leucine reincorporation into newly synthesized proteins. Aliquots of the medium taken at different time-points were precipitated with 10% TCA, filtered using a 0.22 μm pore membrane and radioactivity in the flow-through was measured. Proteolysis is expressed as the percentage of the initial acid-precipitable radioactivity (protein) transformed to acid-soluble radioactivity (amino acids and small peptides) over time. To inhibit autophagy in this system, 20 mM NH4Cl or 10 mM 3MA was added immediately after the labeling period and maintained at that concentration throughout the chase. […] Protein synthesis was determined as the incorporation of [^3H]leucine into acid-insoluble material in the presence of an excess (2.8 mM) unlabeled leucine in the medium. […]

[2] = test system: PS1KO blastocysts; assay: Lysosomal pH measurement with Dextran conjugated Lysosensor Yellow/Blue in PS1KO cells; format: cell-based, Murine; conditions: for effect of pretreatment on the action of isoproterenol on lysosomal pH / effect on elevated lysosomal pH in PS1KO cells: PS1KO cells; for effect of pretreatment on the action of isoproterenol on lysosomal pH: pretreatment before isoproterenol, FIG. 10F; for effect on elevated lysosomal pH in PS1KO cells: FIG. 10A/G; for lysosomal pH after treatment relative to WT lysosomal pH (ANOVA, Dunnet's post-test): PS1KO blastocysts, FIG. 11
Method: For results presented in Example 1, quantification of lysosomal pH was determined using Dextran conjugated Lysosensor Yellow/Blue DND-160 (Invitrogen) as follows. Wild Type and PS1KO blastocysts were grown in High Glucose DMEM+15% FBS with antibiotics to ˜90% confluency. Cells were then trypsinized, harvested (1×10^6 cells/ml) and loaded with 1 mg/ml of Lysosensor-dextran for 1 hour at 37° C. with 5% CO2. The cells were then washed 3× in HBSS and aliquoted at […] into a black 96-well microplate. pH calibration was performed according to the protocol established by Diwu et al (Diwu et al., (1999). Chem Biol 6, 411-418). Briefly, wild type and PS1KO blastocysts were treated with 10 μM monensin and 10 uM nigericin in MES buffer (5 mM NaCl, 115 mM KCL, 1.3 mM MgSO4, 25 mM MES), with the pH adjusted to a range from 3.5-7.0. The samples were read in a Wallac Victor 2 fluorimeter (Perkin Elmer) with excitation at 355 nm. The ratio of emission 440/535 nm was then calculated for each sample. The pH values were determined from the linear standard curve generated via the pH calibration samples.
In a more particular embodiment, quantification of lysosomal pH is determined using Dextran conjugated Lysosensor Yellow/Blue (Invitrogen) as follows. 3000 Wild Type and PS1KO blastocysts were seeded in multiple wells of black, clear bottom tissue culture treated 96 well dish and grown in High Glucose DMEM+15% FBS with antibiotics to ˜90% confluency (˜24 hours). 2 ul of 0.5 mg/ml lysosensor-dextran (1:100 dilution of a 5 mg/ml stock) was added and incubated for 1 hour at 37° C. with 5% CO2. The cells were then washed 3× in HBSS. See also methods and results set forth herein below in Example 2. This modified protocol represents an optimized protocol for the purposes set forth herein.
(§2) Quantification of lysosomal pH was determined using Dextran conjugated Lysosensor Yellow/Blue (Invitrogen). 3000 Wild Type and PS1KO blastocysts were seeded in multiple wells of black, clear bottom tissue culture treated 96 well dish and grown in High Glucose DMEM+15% FBS with antibiotics to ˜90% confluency (˜24 hours). 2 ul of 0.5 mg/ml lysosensor-dextran (1:100 dilution of a 5 mg/ml stock) was added and incubated for 1 hour at 37° C. with 5% CO2. The cells were then washed 3× in HBSS.
Performed according to the protocol established by Diwu et al (supra). Briefly, wild type and PS1KO blastocysts were treated with 10 uM monensin and 10 uM nigericin in MES buffer (5 mM NaCl, 115 mM KCL, 1.3 mM MgSO4, 25 mM MES), with the pH adjusted to a range from 3.5-7.0 for 7-10 min prior to lysosensor addition (the additional hour in the buffer seems to have no effect), these cells are not washed in HBSS since permeabilization with ionophores makes them susceptible to detachment.
(§3) The samples were read in a Wallac Victor 2 fluorimeter (Perkin Elmer) with excitation at 355 nm. The ratio of emission 440 nm/535 nm was then calculated for each sample. pH values were determined from the linear std curve generated via the pH calibration samples.

[3] = test system: PS1-FAD human fibroblasts; assay: Intracellular protein degradation (pulse-chase) in control and PS1-FAD fibroblasts; format: cell-based; conditions: serum withdrawal; NH4Cl treatment
Method: as §1

[4] = test system: Cat B; assay: MR-Cat B signal in WT cells; format: cell-based, Murine; conditions: NH4Cl treated WT cells
Method: (§4) Immunocytochemistry was performed as previously described (Yu et al., 2005). Secondary antibodies used were from Invitrogen: goat anti-mouse/rabbit/rat Alexa Fluor 488 and goat anti-mouse/rabbit/rat Alexa Fluor 568. Cells were imaged using a plan-Apochromat 40× or 100×/1.4 oil DIC objective lens on the laser scanning confocal microscope, LSM 510 META, with LSM software v3.5 (Carl Zeiss MicroImaging Inc). Images were analysed using ImageJ program (NIH). Organelles with low internal pH were labeled by LysoTracker DND-99 dye (Invitrogen) at the final 100 nM for 30 min. Following 4% PFA fixation, cells were further counter stained with Cat D, LMAP1, or LC3 antibody for 4 hrs then visualized with Alexa Fluor 488 conjugated secondary antibody. Active Cat D was labeled by adding Bodipy-FL-pepstatin A directly to the medium at a final concentration of 1 μg/ml for 1 hr. Following 4% PFA fixation, cells were counter stained with Cat D antibody for 4 hrs and visualized with Alexa Fluor 568 conjugated secondary antibody. […] Cells were incubated for 30 min with MR-Cathepsin B prior to mounting them under the confocal microscope. […]
(§5) Active Cat D was labeled by adding Bodipy-FL-pepstatin A directly to the medium at a final concentration of 1 mg/ml for 1 hr. […] Cat B staining with MagicRed-Cathepsin B was also measured fluorometrically with a Wallac Victor 2 fluorometer.

[5] = molecular target: T1, Cat D (Mus musculus, UniProt P18242); assay: Active Cat D labeling with Bodipy-FL-pepstatin A in WT cells; format: cell-based, Murine; conditions: NH4Cl
T1 construct: endogenous in cells; host or cells: WT murine blastocyst cells (BD6)
T1 sequence (P18242 65-410): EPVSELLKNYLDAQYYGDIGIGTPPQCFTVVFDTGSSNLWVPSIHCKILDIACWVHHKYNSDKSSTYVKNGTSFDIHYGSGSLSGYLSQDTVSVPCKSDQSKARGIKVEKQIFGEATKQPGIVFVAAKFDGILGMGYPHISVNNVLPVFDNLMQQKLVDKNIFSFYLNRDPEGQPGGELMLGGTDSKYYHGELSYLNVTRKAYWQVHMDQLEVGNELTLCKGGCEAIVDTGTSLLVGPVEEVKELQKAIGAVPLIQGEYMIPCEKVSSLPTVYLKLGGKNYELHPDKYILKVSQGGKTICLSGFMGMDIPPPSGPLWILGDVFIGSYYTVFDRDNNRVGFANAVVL
Method: Immunocytochemistry was performed as previously described (Yu et al., 2005). Secondary antibodies used were from Invitrogen: goat anti-mouse/rabbit/rat Alexa Fluor 488 and goat anti-mouse/rabbit/rat Alexa Fluor 568. Cells were imaged using a plan-Apochromat 40× or 100×/1.4 oil DIC objective lens on the laser scanning confocal microscope, LSM 510 META, with LSM software v3.5 (Carl Zeiss MicroImaging Inc). Images were analysed using ImageJ program (NIH). Organelles with low internal pH were labeled by LysoTracker DND-99 dye (Invitrogen) at the final 100 nM for 30 min. Following 4% PFA fixation, cells were further counter stained with Cat D, LMAP1, or LC3 antibody for 4 hrs then visualized with Alexa Fluor 488 conjugated secondary antibody. Active Cat D was labeled by adding Bodipy-FL-pepstatin A directly to the medium at a final concentration of 1 μg/ml for 1 hr. Following 4% PFA fixation, cells were counter stained with Cat D antibody for 4 hrs and visualized with Alexa Fluor 568 conjugated secondary antibody. […] Cells were incubated for 30 min with MR-Cathepsin B prior to mounting them under the confocal microscope. To block v-ATPase proton pump activity, ammonium chloride (NH4Cl) was added directly to the medium at a final concentration of 20 mM for 6 hrs prior to LysoTracker addition.

[6] = test system: WT blastocysts; assay: Validation of lysosomal pH measurement in WT blastocysts; format: cell-based, Murine; conditions: FIG. 9A
Method: as §2
Performed according to the protocol established by Diwu et al (supra). […]
as §3
At the outset, the validity of the method described herein to measure lysosomal pH is confirmed. See, for example, FIG. 9A-D. More particularly, to assess the validity of the method of quantifying lysosomal pH, WT blastocysts were treated with chloroquine (CQ), which is known to elevate lysosomal pH. […]

[7] = in vivo; cited from earlier work
[8] = test system: LC3-II; assay: LC3-II levels by immunoblot / LC3 puncta in WT and PS1 KO cells; format: cell-based, Murine; conditions: 6 hrs
Method: (§6) Immunoblotting was performed as previously described (Yu et al., 2005). Briefly, cells used for Western blot analysis were lysed in buffer containing 50 mM Tris (pH=7.4), 150 mM NaCl, 1 mM EDTA, 1 mM EGTA, 1% Triton X-100 and 0.5% Tween-20 with protease and phosphatase inhibitors. Following electrophoresis on 4-20% gradient gel (Invitrogen), proteins were transferred onto 0.45 μm PVDF membranes (Millipore) and the membrane was incubated overnight in primary antibody then incubated with HRP conjugated secondary antibody. The blot was developed by ECL-kit (GE Healthcare). To assess v-ATPase V0a subunit glycosylation, lysate from WT and PS1KO cells were either treated for 24 hrs at 37° C. with PNGase F or O-glycanase using an enzymatic deglycosylation kit according to the manufacturer's instructions (PROzyme) or with Endo H (New England Biolabs) for 24 hrs at 37° C. Total glycoproteins were isolated using Glycoprotein Isolation Kit, ConA according to the manufacturer's instructions (Thermo Scientific).
Immunocytochemistry was performed as previously described (Yu et al., 2005). Secondary antibodies used were from Invitrogen: goat anti-mouse/rabbit/rat Alexa Fluor 488 and goat anti-mouse/rabbit/rat Alexa Fluor 568. […] Images were analysed using ImageJ program (NIH). […]

[9] = test system: Cat B; assay: Cat B activity by MagicRed-Cathepsin B (MR-Cat B) in PS1KO cells; format: cell-based, Murine; conditions: PS1 KO cells
Method: as §4, §5

[10] = test system: v-ATPase V0a1 subunit; assay: v-ATPase V0a1 glycosylation state in WT cells (immunoblot); format: cell-based, Murine; conditions: 100-kDa with vs 120-kDa without tunicamycin
Sequence of v-ATPase V0a1 subunit (Q9Z1G4 whole entry): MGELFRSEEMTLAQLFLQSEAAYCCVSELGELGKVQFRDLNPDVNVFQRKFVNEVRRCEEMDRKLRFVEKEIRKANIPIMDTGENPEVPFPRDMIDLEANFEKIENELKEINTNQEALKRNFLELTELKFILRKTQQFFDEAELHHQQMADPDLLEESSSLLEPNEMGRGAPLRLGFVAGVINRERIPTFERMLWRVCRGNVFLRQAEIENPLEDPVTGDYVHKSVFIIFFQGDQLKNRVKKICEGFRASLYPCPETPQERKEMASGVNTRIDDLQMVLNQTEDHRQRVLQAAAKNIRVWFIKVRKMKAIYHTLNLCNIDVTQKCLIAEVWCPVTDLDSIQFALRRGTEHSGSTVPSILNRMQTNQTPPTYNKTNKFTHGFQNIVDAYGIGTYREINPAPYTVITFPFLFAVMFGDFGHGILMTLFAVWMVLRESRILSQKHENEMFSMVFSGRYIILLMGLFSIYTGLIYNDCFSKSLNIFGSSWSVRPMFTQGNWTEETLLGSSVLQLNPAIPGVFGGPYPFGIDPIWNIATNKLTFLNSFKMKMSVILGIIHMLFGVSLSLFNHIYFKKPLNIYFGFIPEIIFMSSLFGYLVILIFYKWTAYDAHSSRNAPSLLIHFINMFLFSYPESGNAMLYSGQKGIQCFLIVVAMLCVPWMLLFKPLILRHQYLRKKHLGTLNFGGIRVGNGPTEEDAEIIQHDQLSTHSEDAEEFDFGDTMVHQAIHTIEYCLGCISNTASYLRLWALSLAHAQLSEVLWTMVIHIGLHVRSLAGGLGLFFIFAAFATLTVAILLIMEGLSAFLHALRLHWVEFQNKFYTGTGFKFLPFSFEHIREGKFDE
Method: as §6

## Cn1cnc(N)c2ncnc1-2 [3-methyladenine]
[1]
  increase in proteolysis after serum removal: only the increased proteolysis in WT cells was blocked

## O=S(=O)(NCCNC/C=C/c1ccc(Br)cc1)c1cccc2cnccc12 [H89]
[2]
  effect of pretreatment on the action of isoproterenol on lysosomal pH: prevent the action of isoproterenol

## Cl.N [NH4Cl, ammonium chloride]
[3]
  difference in proteolytic rates between control and PS1-FAD fibroblasts: eliminated the difference in proteolytic rates between the two cell groups
[4]
  MR-Cat B signal: minimal
[1]
  increase in proteolysis after serum removal: entirely blocked the increase of proteolysis in both cell types
[5]
  Bodipy-FL-pepstatin A labeling of Cat D-positive compartments (active Cat D): nearly completely abolished; also recorded: minimal colocalization

## C=CCc1ccccc1OCC(O)CNC(C)C (stereo not shown) [alprenolol]
[2]
  effect on elevated lysosomal pH in PS1KO cells: did not affect lysosomal pH; also recorded: remains unchanged

## CCN(CC)CCCC(C)Nc1ccnc2cc(Cl)ccc12 (stereo not shown) [chloroquine]
[6]
  lysosomal pH of WT blastocysts: significantly elevated WT lysosomal pH

## CC(C)(C)NCC(O)c1cc(Cl)c(N)c(Cl)c1 (stereo not shown) [clenbuterol]
[7]
  crossing of the blood brain barrier (BBB): cross the blood brain barrier
[2]; PS1-deleted cells, clinically relevant concentrations
  consequences on lysosomal pH and autophagy in PS1-deleted cells: desired consequences on lysosomal pH and autophagy
[2]
  lysosomal pH after treatment relative to WT lysosomal pH (ANOVA, Dunnet's post-test): did not possess significant difference from WT lysosomal pH; also recorded: did not differ significantly from that of WT lysosomal pH
  effect on elevated lysosomal pH in PS1KO cells: normal levels or even hyperacidic levels; also recorded: restored to WT levels

## COc1cc(/C=C/C(=O)CC(=O)/C=C/c2ccc(O)c(OC)c2)ccc1O [curcumin]
[2]
  lysosomal pH after treatment relative to WT lysosomal pH (ANOVA, Dunnet's post-test): reduces lysosomal pH in excess of WT acidity

## CC(=O)N[C@@H](CC(C)C)C(=O)N[C@@H](CC(C)C)C(=O)N[C@H](C=O)CCCNC(=N)N [leupeptin]
[8]; PS1 KO cells, 0.3 mM
  LC3 levels in PS1 KO cells: did not increase LC3 levels
[8]; WT cells, rapamycin acute induction, leupeptin 0.3 mM
  LC3-II levels in WT cells: significantly elevated LC3-II levels and LC3-positive puncta

## CNC[C@H](O)c1cccc(O)c1 [phenylepherine]
[2]
  effect on elevated lysosomal pH in PS1KO cells: did not affect lysosomal pH; also recorded: remains unchanged

## CC(C)NCC(O)COc1cccc2ccccc12 (stereo not shown) [propranol]
[2]
  effect of pretreatment on the action of isoproterenol on lysosomal pH: prevent the action of isoproterenol

## Oc1ccc(C=Cc2cc(O)cc(O)c2)cc1 [resveratrol]
[9]
  active Cat B in PS1 KO cells: partially restoring active Cat B

## COc1ccc(C2CNC(=O)C2)cc1OC1CCCC1 (stereo not shown) [rolipram]
[2]
  lysosomal pH after treatment relative to WT lysosomal pH (ANOVA, Dunnet's post-test): did not differ significantly from that of WT lysosomal pH
  effect on elevated lysosomal pH in PS1KO cells: decreased lysosomal pH
[2]; listed as Rolipram
  lysosomal pH after treatment relative to WT lysosomal pH (ANOVA, Dunnet's post-test): did not possess significant difference from WT lysosomal pH

## tunicamycin
[10]
  gel mobility of v-ATPase V0a1 subunit: increase in mobility
